The values below come from patent publication US12441768B2, “Compositions and methods for treating endometriosis” (EndoMet Biosciences, Inc., priority 2018, dated 2025).

For the assay, the target named is T1, β-catenin (Homo sapiens, UniProt P35222).
T1 sequence (P35222 1-781): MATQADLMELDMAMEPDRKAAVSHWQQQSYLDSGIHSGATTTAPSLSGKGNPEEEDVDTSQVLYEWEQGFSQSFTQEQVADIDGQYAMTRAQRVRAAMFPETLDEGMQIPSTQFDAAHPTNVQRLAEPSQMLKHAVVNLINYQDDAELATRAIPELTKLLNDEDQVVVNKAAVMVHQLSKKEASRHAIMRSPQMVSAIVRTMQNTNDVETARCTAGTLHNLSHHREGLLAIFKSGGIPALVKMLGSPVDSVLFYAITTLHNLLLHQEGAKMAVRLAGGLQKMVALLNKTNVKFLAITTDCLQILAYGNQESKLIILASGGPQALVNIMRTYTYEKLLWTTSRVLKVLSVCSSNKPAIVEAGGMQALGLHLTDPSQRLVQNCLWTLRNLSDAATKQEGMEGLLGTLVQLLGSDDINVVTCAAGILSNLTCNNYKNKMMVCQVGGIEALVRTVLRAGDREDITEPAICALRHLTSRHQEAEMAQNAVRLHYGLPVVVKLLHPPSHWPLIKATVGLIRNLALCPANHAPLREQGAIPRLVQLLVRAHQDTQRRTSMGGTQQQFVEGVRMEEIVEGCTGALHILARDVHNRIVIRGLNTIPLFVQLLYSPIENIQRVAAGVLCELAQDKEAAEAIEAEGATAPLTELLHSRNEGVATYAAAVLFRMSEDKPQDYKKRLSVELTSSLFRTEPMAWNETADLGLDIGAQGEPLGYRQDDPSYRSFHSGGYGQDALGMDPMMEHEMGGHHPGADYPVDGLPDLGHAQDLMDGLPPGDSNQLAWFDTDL
The assay can be described thus: KD50 measurement using competitive fluorescence polarization (FP) with labelled TCF4. Conditions: fluorescence polarization, β-catenin; for Kd: read-out: β-Cat FP KD. The class given is binding. The text has this: Fluorescence polarization (FP) is another method used to analyze protein-ligand interactions. This methodology measures the change in fluorescence light emitted by a labelled compound free vs. conjugated to another compound in solution. Upon binding of the fluorescent molecule to a complex, polarization increases because of limited rotation of the fluorescent tracer. Competitive FP is often utilized in drug screens as it is formatted for high throughput screens in a plate format. This immunoassay is performed by introducing a non-conjugated drug to compete for binding to the labelled competitor-ligand complex, leading to a reduction in polarization. TCF4 protein is utilized for the competitive assay as (1) this protein influences the full activation of the Wnt pathway and (2) shares homology with the β-catenin inhibitors. Exemplary methodology is described in Example 13. Data were analyzed and plotted in Microsoft Excel (Microsoft, Redmond, WA).
5 nM of labelled TCF4 protein was added to solution of 100 nM of β-catenin and incubated at room temperature in 96-well plates (Greiner 96 Flat transparent plates, Millipore Sigma, Carlsbad CA). Varying concentrations of β-catenin inhibitor candidate (SEQ ID NO: 404) were then added in a series of serial dilutions from 10 nM to 30 uM of inhibitor in different wells of the plate. The fluorescence polarization was read by Infinite M1000 (Tecan, Baldwin Park CA) at excitation wavelength of 470 nm and measured at emission wavelength of 520 nm. […] The experiments were performed three times and data were analyzed and plotted in Microsoft Excel (Microsoft, Redmond, WA).
Background: Polarisation of emitted light reports the rotation of a fluorescent probe.

Where a SMILES comes first, the peptide text is derived from it.

`CC[C@H](C)[C@H](NC(=O)[C@@H](N)CC(C)C)C(=O)N[C@@H](CO)C(=O)N[C@@H](Cc1ccccc1)C(=O)N[C@@H](Cc1c[nH]c2ccccc12)C(=O)NCC(=O)O` [compound 237] (H-LISFWG-OH): the “β-Cat FP Hill slope” value came to 0.72 and the Kd (as a rule, the free concentration of one partner at which half of the binding sites on the other are occupied at equilibrium, for simple one-to-one binding) was over 30 µM.
Take `CC[C@H](C)[C@H](NC(=O)[C@H](CC(C)C)NC(C)=O)C(=O)N[C@@H](CO)C(=O)N[C@@H](Cc1ccccc1)C(=O)N[C@@H](Cc1c[nH]c2ccccc12)C(=O)NCC(=O)O` [compound 238] (Ac-LISFWG-OH): the “β-Cat FP Hill slope” value was found to be 0.7 and the equilibrium dissociation constant (Kd) lay within 10 to 30 µM.
In the case of `CC[C@H](C)[C@H](NC(=O)[C@H](CC(C)C)NC(=O)[C@H](Cc1ccccc1)NC(C)=O)C(=O)N[C@@H](CO)C(=O)N[C@@H](Cc1ccccc1)C(=O)N[C@@H](Cc1c[nH]c2ccccc12)C(=O)NCC(=O)O` [compound 239] (Ac-FLISFWG-OH), the “β-Cat FP Hill slope” value is 0.7 and the Kd lay in the range of 1 to 10 µM.
Regarding `CC[C@H](C)[C@H](NC(=O)[C@H](CC(C)C)NC(=O)[C@@H](NC(=O)[C@H](Cc1c[nH]c2ccccc12)NC(=O)[C@H](CCSC)NC(C)=O)[C@@H](C)CC)C(=O)N[C@@H](CO)C(=O)N[C@@H](Cc1ccccc1)C(=O)N[C@@H](Cc1c[nH]c2ccccc12)C(=O)NCCCC(=O)O` [compound 240] (HELM PEPTIDE1{[ac].M.W.I.L.I.S.F.W.[O=C(O)CCCN[*:1]]}$$$$V2.0), the “β-Cat FP Hill slope” value is recorded as 1.44 and the Kd was under 0.4 µM.
Turning to `CC[C@H](C)[C@H](NC(=O)[C@H](CC(C)C)NC(=O)[C@@H](N)Cc1ccccc1)C(=O)N[C@@H](CO)C(=O)N[C@@H](Cc1ccccc1)C(=O)N[C@@H](Cc1c[nH]c2ccccc12)C(=O)NCC(=O)O` [compound 241] (H-FLISFWG-OH), the “β-Cat FP Hill slope” value is recorded as 0.7 and the Kd was in the range of 1 to 10 µM.
Turning to `CC[C@@H]1NC(=O)[C@H]([C@@H](C)CC)NC(=O)[C@H](CC(C)C)NC(=O)[C@H](Cc2ccccc2)NC(=O)[C@H](Cc2c[nH]c3ccccc23)NC(=O)[C@@H](NC(C)=O)CCCCNC(=O)C[C@@H](C(=O)O)NC(=O)[C@H](Cc2c[nH]c3ccccc23)NC(=O)[C@H](C)NC1=O` [compound 243] (HELM PEPTIDE1{[ac].K.W.F.L.I.[Abu].A.W.D}$PEPTIDE1,PEPTIDE1,2:R3-10:R3$$$V2.0), the “β-Cat FP Hill slope” value is given as 0.7 and the dissociation constant Kd lay in the range of 10 to 30 µM.
`CC[C@@H]1NC(=O)[C@H]([C@@H](C)CC)NC(=O)[C@H](CC(C)C)NC(=O)[C@H](Cc2ccccc2)NC(=O)[C@H](Cc2c[nH]c3ccccc23)NC(=O)[C@@H](N)CCCCNC(=O)C[C@@H](C(=O)O)NC(=O)[C@H](Cc2c[nH]c3ccccc23)NC(=O)[C@H](C)NC1=O` [compound 244] (HELM PEPTIDE1{K.W.F.L.I.[Abu].A.W.D}$PEPTIDE1,PEPTIDE1,1:R3-9:R3$$$V2.0): the “β-Cat FP Hill slope” value is 1.9 and the Kd lay in the range of 0.4 to 1 µM.
Take `CC[C@H](C)[C@@H]1NC(=O)[C@H](CC(C)C)NC(=O)[C@H](Cc2ccccc2)NC(=O)[C@H](Cc2c[nH]c3ccccc23)NC(=O)CCCCCNC(=O)C[C@@H](C(=O)O)NC(=O)[C@H](Cc2c[nH]c3ccccc23)NC(=O)[C@H](C)NC(=O)[C@H](CS)NC1=O` [compound 245] (HELM PEPTIDE1{[O=C(CCCCCN[*:1])[*:2]].W.F.L.I.C.A.W.D}$PEPTIDE1,PEPTIDE1,1:R1-9:R3$$$V2.0): the “β-Cat FP Hill slope” value came out at 1.28 and the Kd was under 0.4 µM.
For `CC[C@@H]1NC(=O)[C@H]([C@@H](C)CC)NC(=O)[C@H](CC(C)C)NC(=O)[C@H](Cc2ccccc2)NC(=O)[C@H](Cc2c[nH]c3ccccc23)NC(=O)CCCCCNC(=O)C[C@@H](C(=O)O)NC(=O)[C@H](Cc2c[nH]c3ccccc23)NC(=O)[C@H](C)NC1=O` [compound 246] (HELM PEPTIDE1{[O=C(CCCCCN[*:1])[*:2]].W.F.L.I.[Abu].A.W.D}$PEPTIDE1,PEPTIDE1,1:R1-9:R3$$$V2.0), the “β-Cat FP Hill slope” value is 3 and the equilibrium dissociation constant (Kd) was under 0.4 µM.
